# Measured values as given in PubChem BioAssay AID1963966 (Molecular Pharmacology Branch, DTP, NCI, 2024).
# Tested on: 935938-334-R-J1-PDC spheroids with HUVEC/MSC, viability
# Test: Anticancer human tumor 935938-334-R-J1-PDC patient-derived small intestine adenocarcinoma cell line growth inhibition [PI3K]
# Conditions: for IC50: curve of first compound; for viability, T/C: stronger effect = lower value
# From the text: Combinatorial screen of targeted agents with the PI3K inhibitors inavolisib, alpelisib, duvelisib, and copanlisib in multi-cell type tumor spheroids
# A high-throughput screen of multi-cell type tumor spheroids was designed to identify active combinations of targeted small molecules and PI3K pathway inhibitors. Complex spheroids include a stromal component modeled by human endothelial cells (HUVEC) and fibroblasts modeled by human mesenchymal stem cells (MSCs). The concentration ranges selected for each drug and investigational agent were based upon clinically achievable concentrations if the clinical Cmax of the agent was known.
# Compounds. The drugs and investigational agents: inavolisib (NSC800729), alpelisib (NSC765974), duvelisib (NSC772469), copanlisib (NSC816437), ipatasertib (NSC767898), afuresertib (NSC778305), talazoparib (NSC767125), sapanisertib (NSC764658), selumetinib (NSC741078), tovorafenib (DAY101, NSC766906), vemurafenib (NSC761431), ravoxertinib (NSC781343), sotorasib (NSC818433), MRTX1133 (NSC 836407), abemaciclib (NSC 768073), palbociclib (NSC758247), venetoclax (NSC 766270), SY5609 (NSC837396), enzalutamide (NSC755605), and darolutamide (NSC825331), were obtained from the National Cancer Institute (NCI) Developmental Therapeutics Program Chemical Repository. The FDA-approved anticancer drug set is available from the NCI Developmental Therapeutics Program. […] The stock solutions were prepared in dimethyl sulfoxide (DMSO, Sigma-Aldrich, St. Louis, MO, cat. D2650) at 800-fold the tested concentration and stored at -70 degrees C prior to their use. All drugs and investigational agents were tested over a range starting from a high concentration at or near the clinical Cmax and decreasing in half-log increments. If the clinical Cmax for an agent had not been determined, the highest concentration tested was 10 microM.
# Cell Culture. All cells were maintained in an incubator at 37 degrees C and 5% CO2 with 95% humidity. The PDC lines were cultured according to standard operating procedures established by the NCI PDMR (https://pdmr.cancer.gov/sops/default.htm). All PDCs were thawed and cultured in Matrigel-coated flasks prepared with a working solution of 1X Ham's F-12 nutrient mix, without supplementation (Invitrogen, Waltham, MA, cat. 11765054), 100 U/mL penicillin-streptomycin (Invitrogen, cat. 15140122), and 2.5% Matrigel (Corning Inc., Corning, NY, cat. 354248) for the first three passages. The 354836-022-R-J1-PDC, 475296-252-R-J1-PDC, and 997726-040-R-J2-PDC lines were cultured in 6A media, which includes advanced DMEM/F-12 (Thermo Fisher Scientific, cat. 12634028), 10 mM HEPES (Thermo Fisher Scientific, cat. 15630080), 1X GlutaMAX supplement (Thermo Fisher Scientific, cat. 35050061), 0.1 mg/mL primocin (InvivoGen, San Diego, CA, cat. ant-pm-2), 10% defined fetal bovine serum, heat inactivated (HyClone Laboratories Inc., Logan, UT, cat. SH30070.03HI), 50% L-WRN conditioned media (ATCC, cat. CRL-3276), 1.25 mM N-Acetyl-L-cysteine (Sigma-Aldrich, cat. A9165), 10 mM nicotinamide (Sigma-Aldrich, cat. N0636), 1X B-27 supplement (Thermo Fisher Scientific, cat. 17504044), 1X N-2 supplement (Thermo Fisher Scientific, cat. 17502048), and 10 microM Y-27632 dihydrochloride (Tocris Bioscience, Bristol, United Kingdom, cat. 1254). The 624824-186-R-J2-PDC line was cultured in 6C/Colon 1B media, which includes all 6A media components plus 50 ng/mL human EGF recombinant protein (Thermo Fisher Scientific, cat. PHG0311). […]
# [1] = second compound 0.00316 µM, first compound 0.0316 µM
# [2] = second compound 0.00316 µM, first compound 0.1 µM
# [3] = second compound 0.01 µM, first compound 0.0316 µM
# [4] = second compound 0.01 µM, first compound 0.1 µM
# [5] = second compound 0.0316 µM, first compound 0.0316 µM
# [6] = second compound 0.0316 µM, first compound 0.1 µM
# [7] = second compound 0.1 µM, first compound 0.0316 µM
# [8] = second compound 0.1 µM, first compound 0.1 µM
# [9] = second compound 0.316 µM, first compound 0.0316 µM
# [10] = second compound 0.316 µM, first compound 0.1 µM
# [11] = second compound 1 µM, first compound 0.0316 µM
# [12] = second compound 1 µM, first compound 0.1 µM
# 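Note: compound exposure lasted seven days before viability was read.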
# 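Throughout, for viability, T/C: percent of vehicle DMSO treated spheroid viability so 100% = untreated.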
structure (smiles),measurement,setting,value
CC(=O)c1c(C)c2cnc(Nc3ccc(N4CCNCC4)cn3)nc2n(C2CCCC2)c1=O + CC(Nc1ccc2c(c1)OCCn1cc(N3C(=O)OCC3C(F)F)nc1-2)C(N)=O,IC50,second compound 0.00316 µM,62.3 nM
same,IC50,second compound 0.01 µM,61.7 nM
same,IC50,second compound 0.0316 µM,59 nM
same,IC50,second compound 0.1 µM,47.2 nM
same,IC50,second compound 0.316 µM,49.9 nM
same,IC50,second compound 1 µM,26.2 nM
same,"viability, T/C","second compound 0.00316 µM, first compound 0.000316 µM",82.7%
same,"viability, T/C","second compound 0.00316 µM, first compound 0.001 µM",66%
same,"viability, T/C","second compound 0.00316 µM, first compound 0.00316 µM",97.2%
same,"viability, T/C","second compound 0.00316 µM, first compound 0.01 µM",90.4%
same,"viability, T/C",[1],95.5%
same,"viability, T/C",[2],24.6%
same,"viability, T/C","second compound 0.01 µM, first compound 0.000316 µM",81.3%
same,"viability, T/C","second compound 0.01 µM, first compound 0.001 µM",70.7%
same,"viability, T/C","second compound 0.01 µM, first compound 0.00316 µM",92.6%
same,"viability, T/C","second compound 0.01 µM, first compound 0.01 µM",86.7%
same,"viability, T/C",[3],82.7%
same,"viability, T/C",[4],26.5%
same,"viability, T/C","second compound 0.0316 µM, first compound 0.000316 µM",67.7%
same,"viability, T/C","second compound 0.0316 µM, first compound 0.001 µM",65.7%
same,"viability, T/C","second compound 0.0316 µM, first compound 0.00316 µM",112%
same,"viability, T/C","second compound 0.0316 µM, first compound 0.01 µM",81.4%
same,"viability, T/C",[5],98.2%
same,"viability, T/C",[6],20.3%
same,"viability, T/C","second compound 0.1 µM, first compound 0.000316 µM",76.2%
same,"viability, T/C","second compound 0.1 µM, first compound 0.001 µM",81.7%
same,"viability, T/C","second compound 0.1 µM, first compound 0.00316 µM",72.4%
same,"viability, T/C","second compound 0.1 µM, first compound 0.01 µM",91.3%
same,"viability, T/C",[7],66.4%
same,"viability, T/C",[8],19.3%
same,"viability, T/C","second compound 0.316 µM, first compound 0.000316 µM",63.5%
same,"viability, T/C","second compound 0.316 µM, first compound 0.001 µM",65.1%
same,"viability, T/C","second compound 0.316 µM, first compound 0.00316 µM",74.8%
same,"viability, T/C","second compound 0.316 µM, first compound 0.01 µM",77.2%
same,"viability, T/C",[9],70.7%
same,"viability, T/C",[10],19.5%
same,"viability, T/C","second compound 1 µM, first compound 0.000316 µM",47.9%
same,"viability, T/C","second compound 1 µM, first compound 0.001 µM",57.5%
same,"viability, T/C","second compound 1 µM, first compound 0.00316 µM",82.2%
same,"viability, T/C","second compound 1 µM, first compound 0.01 µM",67.3%
same,"viability, T/C",[11],47.3%
same,"viability, T/C",[12],20.6%
CCCS(=O)(=O)Nc1ccc(F)c(C(=O)c2c[nH]c3ncc(-c4ccc(Cl)cc4)cc23)c1F + CC(Nc1ccc2c(c1)OCCn1cc(N3C(=O)OCC3C(F)F)nc1-2)C(N)=O,IC50,second compound 0.00316 µM,6910 nM
same,IC50,second compound 0.01 µM,7580 nM
same,IC50,second compound 0.0316 µM,7080 nM
same,IC50,second compound 0.1 µM,6880 nM
same,IC50,second compound 0.316 µM,5830 nM
same,IC50,second compound 1 µM,5370 nM
same,"viability, T/C",[1],100%
same,"viability, T/C",[2],101%
same,"viability, T/C","second compound 0.00316 µM, first compound 0.316 µM",162%
same,"viability, T/C","second compound 0.00316 µM, first compound 1 µM",103%
same,"viability, T/C","second compound 0.00316 µM, first compound 3.16 µM",92.6%
same,"viability, T/C","second compound 0.00316 µM, first compound 10 µM",30.3%
same,"viability, T/C",[3],136%
same,"viability, T/C",[4],89.5%
same,"viability, T/C","second compound 0.01 µM, first compound 0.316 µM",136%
same,"viability, T/C","second compound 0.01 µM, first compound 1 µM",103%
same,"viability, T/C","second compound 0.01 µM, first compound 3.16 µM",118%
same,"viability, T/C","second compound 0.01 µM, first compound 10 µM",28.9%
same,"viability, T/C",[5],92.3%
same,"viability, T/C",[6],101%
same,"viability, T/C","second compound 0.0316 µM, first compound 0.316 µM",98.3%
same,"viability, T/C","second compound 0.0316 µM, first compound 1 µM",110%
same,"viability, T/C","second compound 0.0316 µM, first compound 3.16 µM",100%
same,"viability, T/C","second compound 0.0316 µM, first compound 10 µM",28.6%
same,"viability, T/C",[7],93.6%
same,"viability, T/C",[8],78.1%
same,"viability, T/C","second compound 0.1 µM, first compound 0.316 µM",104%
same,"viability, T/C","second compound 0.1 µM, first compound 1 µM",118%
same,"viability, T/C","second compound 0.1 µM, first compound 3.16 µM",88.5%
same,"viability, T/C","second compound 0.1 µM, first compound 10 µM",31.3%
same,"viability, T/C",[9],84.2%
same,"viability, T/C",[10],92.4%
same,"viability, T/C","second compound 0.316 µM, first compound 0.316 µM",84.6%
same,"viability, T/C","second compound 0.316 µM, first compound 1 µM",102%
same,"viability, T/C","second compound 0.316 µM, first compound 3.16 µM",78.9%
same,"viability, T/C","second compound 0.316 µM, first compound 10 µM",24.6%
same,"viability, T/C",[11],72.5%
same,"viability, T/C",[12],66.9%
same,"viability, T/C","second compound 1 µM, first compound 0.316 µM",86.5%
same,"viability, T/C","second compound 1 µM, first compound 1 µM",62.9%
same,"viability, T/C","second compound 1 µM, first compound 3.16 µM",77%
same,"viability, T/C","second compound 1 µM, first compound 10 µM",22.9%
